{"source": "patent US7323186B2", "about": "(priority 2001, dated 2008)", "key": {"[1]": {"tested_on": "TSST-1 production by S. aureus FRI-1169", "assay_type": "cell-based, Staphylococcus aureus"}, "[2]": {"tested_on": "TSST-1 production by S. aureus FRI-1187", "assay_type": "cell-based, Staphylococcus aureus"}}, "data": [{"smiles": "Oc1cc(Cl)ccc1Oc1ccc(Cl)cc1Cl", "note": "[Triclosan, triclosan]", "values": [{"measurement": "TSST-1 production compared to the control", "setting": "[1]", "value": "produced less TSST-1"}, {"measurement": "TSST-1 production compared to the control", "setting": "[2]", "value": "produced less TSST-1"}]}]}
